For this assay, the system named is neutrophils. The experiment in a line: Chemorepulsion/chemoattraction transwell migration assay (Neuroprobe ChemoTx plates). In kind it is cell-based. The following applies: Homo sapiens, Neutrophil, 1 h, 1.1 mg/ml ellagic acid, CR mode, 1 hour at 37° C., read-out: fold induction of chemorepulsion as compared to media. Here is the method: The chemorepulsive activity of ellagic acid was determined as follows: • 1. Prior to beginning the assay, the following were prepared: • a. 0.5% Fetal Calf Serum (FCS) in Iscove's Modified Dulbecco's Medium (IMDM) (Assay Medium) (Both from ATCC). • b. Migratory cells at a concentration of 2×10^7 cells/ml in Assay Medium. • c. The indicated dilutions of ellagic acid Assay Medium. • 2. The assay plates were Neuroprobe ChemoTx plates, part number 206-3 (3 um pore size) for neutrophils. • 3. The plates were removed from packaging, leaving the membrane behind. • 4. 31 μl of the following solutions were pipetted into each well: • a. For media controls and for chemorepulsion samples, Assay Medium was used. • b. For chemoattraction samples, appropriate dilution of ligand was used. • 5. The membrane was carefully placed onto the plate, starting at one side and then slowly lowering the other edge onto the plate. • 6. 29 μl of the following were pipetted onto the top of each circle: • a. For media controls and chemoattraction samples, Assay Medium was used. • b. For chemorepulsion samples, the appropriate dilution of ligand was used. • 7. […] The assay plates were processed by Guava Easy Cyte Plus (using via cell count for read out). • 1. […] The Guava Easy Cyte Plus was used to read the plate and quantify the number of migrated cells. […]

As for `O=c1oc2c(O)c(O)cc3c(=O)oc4c(O)c(O)cc1c4c23` [ellagic acid, 2,3,7,8-tetrahydroxy-chromeno[5,4,3-cde]chromene-5,10-dione], the fold induction at 1100 µg/mL was about 55.
